Source: patent US9394268B2, “(E)-1-(5-methoxy-2,2-dimethyl-2H-chromen-8-yl)-3-(4-methoxyphenyl)prop-2-en-1-one and analogs thereof, as well as preparation method and use thereof” (Sichuan University, priority 2012, dated 2016)

Tests used:
Assay type in all cases: cell-based
K562 = assay: Cell proliferative assay (MTT), K562; settings: Homo sapiens, 72 h incubation, read-out: IC50s K562
Procedure: (§1) The synthesized compounds were evaluated for their cytotoxin activity against suspended tumor cells. These cells were seeded on 96-well plates and incubated for 24 h. Selected compounds were added at various doses and incubated for 72 h, MTT was then added, and the absorbance was measured at a wavelength of 590 nm. IC50 values are expressed as the mean±SEM from the dose-response curves of at least three independent experiments.

HepG2 = assay: Cell proliferative assay (MTT), HepG2; settings: Homo sapiens, 72 h incubation, read-out: IC50s HepG2
Procedure: as §1

A375 = assay: Cell proliferative assay (MTT), A375; settings: Homo sapiens, A-375, 72 h incubation, read-out: IC50s A375
Procedure: as §1

SMMC-7221 = assay: Cell proliferative assay (MTT), SMMC-7221; settings: 72 h incubation, read-out: IC50s SMMC-7221
Procedure: as §1

LO2 = assay: Cell proliferative assay (MTT), LO2; settings: Homo sapiens, L02, 72 h incubation, read-out: IC50s LO2
Procedure: as §1

A549 = assay: Cell proliferative assay (MTT), A549; settings: Homo sapiens, 72 h incubation, read-out: IC50s A549
Procedure: as §1

Compound | IC50 (K562) | IC50 (HepG2) | IC50 (A375) | IC50 (SMMC-7221) | IC50 (LO2) | IC50 (A549)
COc1ccc(/C=C/C(=O)c2ccc(OC)c3c2OC(C)(C)C=C3)cc1OC(=O)c1ccco1 [SKLBC-68, (E)-2-methoxy-5-(3-(5-methoxy-2,2-dimethyl-2H-chromen-8-yl)-3-oxoprop-1-en-1-yl)phenyl furan-2-carboxylate] | 245 nM | 68 nM | 680 nM | 1620 nM | > 10000 nM | 800 nM
COc1ccc(/C=C/C(=O)c2ccc(OC)c3c2OC(C)(C)C=C3)cc1OS(=O)(=O)c1ccc(C)cc1 [SKLBC-69, (E)-2-methoxy-5-(3-(5-methoxy-2,2-dimethyl-2H-chromen-8-yl)-3-oxoprop-1-en-1-yl)phenyl 4-methylbenzenesulfonate] | 7850 nM | 3600 nM | 2400 nM | 9200 nM | > 10000 nM | 8600 nM
COc1ccc(/C=C/C(=O)c2ccc(OC)c3c2OC(C)(C)C=C3)cc1OS(=O)(=O)Cc1ccccc1 [SKLBC-70, (E)-2-methoxy-5-(3-(5-methoxy-2,2-dimethyl-2H-chromen-8-yl)-3-oxoprop-1-en-1-yl)phenyl phenylmethanesulfonate] | > 10000 nM | > 10000 nM | > 10000 nM | > 10000 nM | > 10000 nM | > 10000 nM
COc1ccc(/C=C/C(=O)c2ccc(OC)c3c2OC(C)(C)C=C3)cc1OCC=C(C)C [SKLBC-71, (E)-1-(5-methoxy-2,2-dimethyl-2H-chromen-8-yl)-3-(4-methoxy-3-((3-methylbut-2-en-1-yl)oxy)phenyl)prop-2-en-1-one] | 620 nM | 580 nM | 2200 nM | 870 nM | > 10000 nM | 1200 nM
C=CCOc1cc(/C=C/C(=O)c2ccc(OC)c3c2OC(C)(C)C=C3)ccc1OC [SKLBC-72, (E)-3-(3-(allyloxy)-4-methoxyphenyl)-1-(5-methoxy-2,2-dimethyl-2H-chromen-8-yl)prop-2-en-1-one] | > 10000 nM | > 10000 nM | > 10000 nM | > 10000 nM | > 20000 nM | > 10000 nM
C#CCOc1cc(/C=C/C(=O)c2ccc(OC)c3c2OC(C)(C)C=C3)ccc1OC [SKLBC-73, (E)-1-(5-methoxy-2,2-dimethyl-2H-chromen-8-yl)-3-(4-methoxy-3-(prop-2-yn-1-yloxy)phenyl)prop-2-en-1-one] | > 10000 nM | > 10000 nM | > 10000 nM | > 10000 nM | > 20000 nM | > 10000 nM
COc1ccc(/C=C/C(=O)c2ccc(OC)c3c2OC(C)(C)C=C3)cc1OC(=O)CCl [SKLBC-74, (E)-2-methoxy-5-(3-(5-methoxy-2,2-dimethyl-2H-chromen-8-yl)-3-oxoprop-1-en-1-yl)phenyl 2-chloroacetate] | 202 nM | 90 nM | 245 nM | 2740 nM | > 10000 nM | 226 nM
C=CC(=O)Oc1cc(/C=C/C(=O)c2ccc(OC)c3c2OC(C)(C)C=C3)ccc1OC [SKLBC-75, (E)-2-methoxy-5-(3-(5-methoxy-2,2-dimethyl-2H-chromen-8-yl)-3-oxoprop-1-en-1-yl)phenyl acrylate] | 295 nM | 60 nM | 190 nM | 1160 nM | > 10000 nM | 490 nM
COc1ccc(/C=C/C(=O)c2ccc(OC)c3c2OC(C)(C)C=C3)cc1OS(C)(=O)=O [SKLBC-77, (E)-2-methoxy-5-(3-(5-methoxy-2,2-dimethyl-2H-chromen-8-yl)-3-oxoprop-1-en-1-yl)phenyl methanesulfonate] | 9240 nM | 9000 nM | > 10000 nM | > 10000 nM | > 10000 nM | > 10000 nM
COc1ccc(/C=C/C(=O)c2ccc(OC)c3c2OC(C)(C)C=C3)cc1OC(=O)C12CC3CC(CC(C3)C1)C2 [SKLBC-78] | 2830 nM | 2520 nM | 1060 nM | > 10000 nM | 5580 nM | 6400 nM
CCCCC(=O)Oc1cc(/C=C/C(=O)c2ccc(OC)c3c2OC(C)(C)C=C3)ccc1OC [SKLBC-79, (E)-2-methoxy-5-(3-(5-methoxy-2,2-dimethyl-2H-chromen-8-yl)-3-oxoprop-1-en-1-yl)phenyl pentanoate] | 240 nM | 90 nM | 378 nM | 1030 nM | > 10000 nM | 1180 nM
COc1ccc(/C=C/C(=O)c2ccc(OC)c3c2OC(C)(C)C=C3)cc1OC(=O)C1CC1 [SKLBC-80, (E)-2-methoxy-5-(3-(5-methoxy-2,2-dimethyl-2H-chromen-8-yl)-3-oxoprop-1-en-1-yl)phenyl cyclopropanecarboxylate] | 410 nM | 118 nM | 382 nM | 1440 nM | > 10000 nM | 1320 nM
COc1ccc(/C=C/C(=O)c2ccc(OC)c3c2OC(C)(C)C=C3)cc1OC(=O)C(C)C [SKLBC-81, (E)-2-methoxy-5-(3-(5-methoxy-2,2-dimethyl-2H-chromen-8-yl)-3-oxoprop-1-en-1-yl)phenyl isobutyrate] | 570 nM | 150 nM | 505 nM | 2630 nM | > 10000 nM | 980 nM
COc1ccc(/C=C/C(=O)c2ccc(OC)c3c2OC(C)(C)C=C3)cc1[N+](=O)[O-] [SKLBC-82, (E)-1-(5-methoxy-2,2-dimethyl-2H-chromen-8-yl)-3-(4-methoxy-3-nitrophenyl)prop-2-en-1-one] | > 10000 nM | > 10000 nM | > 10000 nM | > 10000 nM | > 20000 nM | > 10000 nM
COc1ccc(/C=C/C(=O)c2ccc(OC)c3c2OC(C)(C)C=C3)cc1NO [SKLBC-84, (E)-3-(3-(hydroxyamino)-4-methoxyphenyl)-1-(5-methoxy-2,2-dimethyl-2H-chromen-8-yl)prop-2-en-1-one] | > 10000 nM | > 10000 nM | > 10000 nM | > 10000 nM | > 20000 nM | > 10000 nM
CNc1cc(/C=C/C(=O)c2ccc(OC)c3c2OC(C)(C)C=C3)ccc1OC [SKLBC-85, (E)-1-(5-methoxy-2,2-dimethyl-2H-chromen-8-yl)-3-(4-methoxy-3-(methylamino)phenyl)prop-2-en-1-one] | > 10000 nM | > 10000 nM | > 10000 nM | > 10000 nM | > 20000 nM | > 10000 nM
CCN(CC)c1cc(/C=C/C(=O)c2ccc(OC)c3c2OC(C)(C)C=C3)ccc1OC [SKLBC-86, (E)-3-(3-(diethylamino)-4-methoxyphenyl)-1-(5-methoxy-2,2-dimethyl-2H-chromen-8-yl)prop-2-en-1-one] | > 10000 nM | > 10000 nM | > 10000 nM | > 10000 nM | > 20000 nM | > 10000 nM
C#CCNc1cc(/C=C/C(=O)c2ccc(OC)c3c2OC(C)(C)C=C3)ccc1OC [SKLBC-87, (E)-1-(5-methoxy-2,2-dimethyl-2H-chromen-8-yl)-3-(4-methoxy-3-(prop-2-yn-1-ylamino)phenyl)prop-2-en-1-one] | > 10000 nM | > 10000 nM | > 10000 nM | > 10000 nM | > 20000 nM | > 10000 nM
